Earlier results in patent publication US5691323A, “Muscarine antagonists” (Merck & Co., Inc., priority 1995, dated 1997).

Experiments:
[1] = test system: smooth muscle (ordinarily called M3 type); settings: background
[2] = background statement
[3] = test system: axial elongation; settings: background
[4] = test system: pupil; settings: background

SMILES | Selectivity for smooth muscle (M3 type) receptors [1] | Sensitization assay result [2] | Effect on axial elongation / enlargement of the eye [3] | Pupil dilation (mydriasis) [4]
C[N+]1(C)CCC(OC(=O)C(c2ccccc2)c2ccccc2)CC1 [Example 4-DAMP, 4-diphenylacetoxy-N-methylpiperadine methiodide] | relatively selective antagonist for smooth muscle | – | – | –
CN1CCN(CC(=O)N2c3ccccc3C(=O)Nc3cccnc32)CC1 [Pirenzepine] | – | positive | inhibits axial elongation | far less effective at pupil dilation than atropine
CN1CCc2cccc3c2[C@H]1Cc1ccc(O)c(O)c1-3 [apomorphine] | – | – | inhibit or actually prevent the axial enlargement of the eye | –
CN1[C@@H]2CC[C@H]1C[C@@H](OC(=O)C(CO)c1ccccc1)C2 (stereo partly shown) [atropine] | – | positive | – | causes mydriasis
